According to ChEMBL document CHEMBL4052647, “Synthesis and pharmacological evaluation of novel chromone derivatives as balanced multifunctional agents against Alzheimer's disease” (Bioorg Med Chem, 2017):
Calls of active or inactive are those of the source. The calls are words filed in the database; no cut-off is given here.

Assays:
[1] = target: T1, Amine oxidase [flavin-containing] A (Homo sapiens, UniProt P21397); assay: Inhibition of recombinant human MAO-A expressed in baculovirus infected BTI insect cells using p-tyramine as substrate pretreated for 15 mins followed by substrate addition after 20 mins by Amplex red reagent based fluorimetric method
T1 sequence (P21397 whole entry): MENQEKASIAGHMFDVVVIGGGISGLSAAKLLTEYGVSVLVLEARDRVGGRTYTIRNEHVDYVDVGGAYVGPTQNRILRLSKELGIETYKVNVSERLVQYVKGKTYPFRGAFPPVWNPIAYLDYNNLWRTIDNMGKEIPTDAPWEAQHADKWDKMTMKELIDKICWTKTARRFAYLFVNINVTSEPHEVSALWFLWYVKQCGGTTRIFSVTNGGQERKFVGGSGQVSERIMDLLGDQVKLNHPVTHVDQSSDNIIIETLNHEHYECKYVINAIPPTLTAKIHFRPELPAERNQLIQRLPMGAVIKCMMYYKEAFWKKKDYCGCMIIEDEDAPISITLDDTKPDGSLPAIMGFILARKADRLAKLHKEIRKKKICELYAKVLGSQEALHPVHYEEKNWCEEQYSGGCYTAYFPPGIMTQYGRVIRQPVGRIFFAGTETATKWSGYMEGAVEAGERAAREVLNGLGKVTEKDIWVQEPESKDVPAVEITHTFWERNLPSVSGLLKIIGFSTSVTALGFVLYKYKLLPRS

Homo sapiens = organism: Homo sapiens; assay: Selectivity index, ratio of IC50 for recombinant human MAO-A expressed in baculovirus infected BTI insect cells to IC50 for recombinant human MAO-B expressed in baculovirus infected BTI insect cells
[2] = Antioxidant activity assessed as trolox equivalent of […]-induced radical scavenging activity at 1 to 10 uM preincubated for 15 mins followed by AAPH addition measured every minute for 120 mins by ORAC fluorescein assay; type: functional
[3] = target: Amyloid-beta precursor protein (Homo sapiens) (UniProt P05067); assay: Inhibition of HFIP-pretreated amyloid beta (1 to 42) (unknown origin) self-induced aggregation at 20 uM after 46 to 48 hrs by thioflavin-T fluorescence assay relative to control
PC-12 [4] = assay: Cytotoxicity against rat PC12 cells at 20 uM after 24 hrs by MTT assay; type: cell-based; conditions: pc-12, 24 h
[5] = target: T2, Amine oxidase [flavin-containing] B (Homo sapiens, UniProt P27338); assay: biochemical; type: cell-based
T2 sequence (P27338 whole entry): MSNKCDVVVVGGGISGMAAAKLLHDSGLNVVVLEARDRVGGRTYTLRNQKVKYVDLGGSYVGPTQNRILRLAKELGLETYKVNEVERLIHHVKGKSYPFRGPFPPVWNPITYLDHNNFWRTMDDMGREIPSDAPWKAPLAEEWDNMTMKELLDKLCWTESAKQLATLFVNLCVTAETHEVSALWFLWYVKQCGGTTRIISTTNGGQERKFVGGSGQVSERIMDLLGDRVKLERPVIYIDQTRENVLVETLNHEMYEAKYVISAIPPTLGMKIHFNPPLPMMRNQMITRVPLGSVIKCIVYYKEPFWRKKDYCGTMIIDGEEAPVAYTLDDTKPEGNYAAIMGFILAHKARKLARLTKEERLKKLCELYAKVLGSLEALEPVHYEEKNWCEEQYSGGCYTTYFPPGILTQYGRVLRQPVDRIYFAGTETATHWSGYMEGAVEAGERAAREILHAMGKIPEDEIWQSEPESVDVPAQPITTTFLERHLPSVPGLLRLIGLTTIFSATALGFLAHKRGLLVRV
Description: Inhibition of recombinant human MAO-B expressed in baculovirus infected BTI insect cells using p-tyramine as substrate pretreated for 15 mins followed by substrate addition after 20 mins by Amplex red reagent based fluorimetric method

[6] = target: Amyloid-beta precursor protein (Homo sapiens) (UniProt P05067); assay: Potency index, ratio of compound effect to curcumin effect for inhibition of HFIP-pretreated amyloid beta (1 to 42) (unknown origin) self-induced aggregation at 20 uM
[7] = Metal chelating activity assessed as inhibition of Cu2+-induced amyloid beta (1 to 42 residues) aggregation by measuring reduction in amyloid fibrils at 50 uM […] by uranyl acetate staining based transmission electron microscopic analysis
[8] = Metal chelating activity assessed as inhibition of Cu2+-induced amyloid beta (1 to 42 residues) aggregation at 50 uM after 24 hrs by thioflavin-T fluorescence assay (reference value: 142%)
PC-12 [9] = assay: Neuroprotective activity against H2O2-induced cell death in rat PC12 cells assessed as increase in cell viability at 10 uM pretreated for 24 hrs followed by H2O2 induction after 24 hrs by MTT assay; type: functional, cell-based
physchem [10] = conditions: PAMPA
physchem [11] = conditions: PAMPA, pH 7.4

Sequence of Amyloid-beta precursor protein (Homo sapiens) (P05067 whole entry, the tested form may be a part): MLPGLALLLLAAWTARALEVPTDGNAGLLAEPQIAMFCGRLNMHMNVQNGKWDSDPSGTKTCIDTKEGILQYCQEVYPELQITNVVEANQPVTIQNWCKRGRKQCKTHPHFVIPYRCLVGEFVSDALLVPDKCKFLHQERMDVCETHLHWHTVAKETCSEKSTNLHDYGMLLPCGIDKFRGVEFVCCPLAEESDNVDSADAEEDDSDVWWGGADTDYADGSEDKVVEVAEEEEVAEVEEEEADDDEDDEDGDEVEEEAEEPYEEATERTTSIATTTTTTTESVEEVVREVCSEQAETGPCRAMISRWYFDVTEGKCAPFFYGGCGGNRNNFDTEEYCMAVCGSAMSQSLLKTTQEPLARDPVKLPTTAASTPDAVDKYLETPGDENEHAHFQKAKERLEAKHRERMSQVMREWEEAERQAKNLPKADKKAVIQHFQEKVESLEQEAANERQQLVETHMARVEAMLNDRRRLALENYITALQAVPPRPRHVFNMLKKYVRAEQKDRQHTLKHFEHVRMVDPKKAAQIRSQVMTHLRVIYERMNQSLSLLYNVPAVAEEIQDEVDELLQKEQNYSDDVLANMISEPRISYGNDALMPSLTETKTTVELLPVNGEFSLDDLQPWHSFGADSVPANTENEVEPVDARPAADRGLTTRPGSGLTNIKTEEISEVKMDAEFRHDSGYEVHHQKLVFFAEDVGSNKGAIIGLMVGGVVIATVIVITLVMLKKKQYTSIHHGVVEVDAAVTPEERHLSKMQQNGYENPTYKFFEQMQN

Structure (SMILES)	IC50 [1] [µM]	inhibition [3] [%]	IC50 [5] [µM]	Ratio [6]	inhibition [7]	inhibition [8] [%]	Papp at 16 h (physchem [10]) [×10⁻⁶ cm/s]	Papp at 18 h, 25 ug/ml (physchem [11]) [×10⁻⁶ cm/s]	Ratio IC50 (Homo sapiens)	Activity [2] [equiv]	Activity (PC-12 [4])	Activity (PC-12 [9])
O=c1c(/C=N/c2ncccc2O)coc2ccc(Br)cc12	9.81	69.8	2.92						3.31	2.97	Non-Toxic	
O=c1c(/C=N/c2ncccc2O)coc2ccccc12	7.41	70.8	2.23							2.23	Non-Toxic	
Oc1c(I)cc(Cl)c2cccnc12					Active	47.7						
Oc1ccc(/C=C/c2cc(O)cc(O)c2)cc1		57.2			Active	63.3						
O=c1c(/C=N/c2cc(F)ccc2O)coc2ccc(Br)cc12	3.09	79.1	0.825						3.75	2.68	Non-Toxic	
CCn1cc(C(=O)O)c(=O)c2cc(F)c(N3CCNC(C)C3)c(F)c21 (configuration not stated) [LOMEFLOXACIN]							3.1	1.9				
O=c1c(/C=N/c2cccc(Cl)c2O)coc2ccc(Br)cc12	4.47	68.1	2.27				4.81		1.97	2.6	Non-Toxic	
COc1ccc2[nH]cc(CCNC(C)=O)c2c1										2.05		

Now from value to compound, other results behind:

IC50 [1] [µM]	inhibition [3] [%]	IC50 [5] [µM]	Ratio [6]	inhibition [7]	inhibition [8] [%]	Papp at 16 h (physchem [10]) [×10⁻⁶ cm/s]	Papp at 18 h, 25 ug/ml (physchem [11]) [×10⁻⁶ cm/s]	Structure (SMILES)	Ratio IC50 (Homo sapiens)	Activity [2] [equiv]	Activity (PC-12 [4])	Activity (PC-12 [9])
6.81	65.2	31.5						O=c1c(/C=N/c2ccccc2O)coc2ccccc12	0.22	2.39	Non-Toxic	
7.14	89.5	1.12	1.9					Cc1ccc(O)c(/N=C/c2coc3ccc(Br)cc3c2=O)c1	6.38	0.784	Non-Toxic	
6.26	75.2	14.3						Cc1ccc(/N=C/c2coc3ccccc3c2=O)c(O)c1	0.44	2.26	Non-Toxic	
1.65	79.5	14.5						O=c1c(/C=N/c2cccc(Cl)c2O)coc2ccccc12	0.11	2.01	Non-Toxic	
2.62	48.3	0.915				5.57		Cc1ccc2occ(/C=N/c3ccc(Cl)cc3O)c(=O)c2c1	2.86	3.41	Non-Toxic	Active
3.34	58.1	1.13						Cc1ccc(O)c(/N=C/c2coc3ccccc3c2=O)c1	2.96	2.43	Non-Toxic	
1.94	68.1	19.2						O=c1c(/C=N/c2cc(Cl)ccc2O)coc2ccccc12	0.11	2.24	Non-Toxic	
